Measurements taken from publication PMC12811658, “Design, Synthesis, and Structural Evolution of Pseudo‐Natural Product IDO1 Inhibitors and Degraders” (Angewandte Chemie (International Ed. in English), 2025).

What was measured:
C57Bl/6 mice = experiment: Tolerability (dose escalation PO and IP); assay type: in vivo, male C57Bl/6 mice; conditions: for dose up to which no clinical signs were observed: dose escalation over 3-5 days
[1] = system: global proteome of SKOV-3 cells; experiment: TMT-based global proteome profiling; assay type: cell-based; conditions: 10 µM vs DMSO, 4 h, LC-MS/MS
Experimental: Figure 3 Comparison of IDO1 degradation efficiency for selected compounds. a) Detection of IDO1 levels using immunostaining. IFN‐γ stimulated HeLa cells were treated with the compounds for 24 h. IDO1 protein abundance was detected with IDO1 antibody. Data are mean values ± SD, n = 3. b) IDO1 protein levels in BxPC3 cells upon compounds treatment were detected using immunoblotting. BxPC3 cells were treated with IFN‐γ for 24 h prior to washout, followed by addition of compounds. Representative blot and quantified band intensities are shown (mean values ± SD, n = 3). See Figure S11a S12a for the uncropped blots. c) Key functions of hit compounds that influence degradation efficiency. d) Heatmap for IDO degradation efficiency. IDO1 levels were monitored as described in (c). See Table S1 for mean values and Figure S11b for the uncropped blots. e)–g) Dose dependent degradation of IDO1 protein in BxPC3 cells treated with iDeg‐7–9 and detected as described in (c). Representative data of n = 3 except for iDeg‐9 (n = 4). See Figure S12 S13 for the uncropped blots. h) Quantification of IDO1 protein levels from e‐g (mean values ± SD, n = 3 except for iDeg‐9 (n = 4). i) Tabulated inhibition and degradation ability of iDeg‐6–9. ND: not detected. j) Volcano plot of iDeg‐6‐induced changes on the global proteome. SKOV‐3 cells were treated with 10 µM iDeg‐6 or DMSO for 4 h followed by protein extraction, tryptic digest and LC‐MS/MS analysis (n = 4). Plot generated using UMSAP (T 0 = 0.5, S 0 = 0.5).
Cells were collected after trypsinization. The collected cell suspension was centrifugated and washed twice by cold PBS before lysate preparation by means of four freeze-thaw cycles in PBS containing 0.4% NP-40 alternative with protease (Roche, #5892970001) and phosphatase inhibitors (Roche, #4906845001). Protein concentration was determined by DC protein assay (BIO-RAD, #5000116) and 200 μg of protein lysates were subjected to the sample preparation and MS analysis. Protein lysates were dissolved in equal volume of 100 mM triethylammonium bicarbonate (TEAB) buffer supplemented with 7.5 µL of a 200 mM Tris(2-carboxyethyl) phosphine (TCEP) followed by an incubation step at 55 °C for 1 h. Afterwards, 7.5 µL of 375 mM iodoacetamide were added and samples were incubated for another 30 min at room temperature in the dark prior to acetone-based protein precipitation (pre-incubation at -20 °C overnight). On the next day, samples were centrifuged at 8,000 x g and 4 °C, the supernatant was aspired and protein pellets were dried at room temperature. Pellets were dissolved in digestion buffer (trypsin: protein ratio-1:50 (w/w)), in which trypsin was pre-dissolved in 10 mM HCl, and then diluted in 100 mM TEAB buffer to a final concentration of 0.4 µg/µL trypsin in 10 mM HCl, then the sample was incubated with shaking overnight at 37 °C. On the next day, samples were labelled with TMT10plex reagents (Thermo Scientific, WL320956) following the instruction of the TMT10plex Mass Tag Labeling Kit. Namely, 20 µL of the TMTpro Label reagent was added to each 100 µL sample (100 µg protein) followed by incubation for 2 h at room temperature while shaking. Afterwards, 5 µL of 5% hydroxylamine was added into each sample, and the samples were incubated for 15 min to quench the reaction. Equal amounts of each sample were combined in a new tube. The pooled samples were dried in a SpeedVac at 30 °C until the liquid evaporated completely.
All solvents used during MS measurements were LC-MS grade. The TMTpro labeled peptides were cleaned up and fractionated using a reversed-phase fractionation spin column (Thermo Fisher Scientific ^#84868) following the instructions of the Pierce™ High pH Reversed-Phase Peptide Fractionation kit. Briefly, the combined labeled samples (40 µg) were fully dissolved in 300 μL of 0.1% TFA and loaded onto an activated spin column, followed by centrifugation at 3000 g for 2 minutes. […]

recombinant human IDO1 = target: T1, recombinant human IDO1 (Homo sapiens, UniProt P14902); experiment: IDO1 enzymatic assay in vitro; assay type: biochemical; conditions: at 14 µM; pre-incubation 37 °C 45 min; mean ± SD
T1 construct: The GST-tag of IDO1 was removed to obtain untagged full-length IDO1l using PreScission protease; GST (N, cleaved yes); made in house; own inference
T1 sequence (P14902 whole entry): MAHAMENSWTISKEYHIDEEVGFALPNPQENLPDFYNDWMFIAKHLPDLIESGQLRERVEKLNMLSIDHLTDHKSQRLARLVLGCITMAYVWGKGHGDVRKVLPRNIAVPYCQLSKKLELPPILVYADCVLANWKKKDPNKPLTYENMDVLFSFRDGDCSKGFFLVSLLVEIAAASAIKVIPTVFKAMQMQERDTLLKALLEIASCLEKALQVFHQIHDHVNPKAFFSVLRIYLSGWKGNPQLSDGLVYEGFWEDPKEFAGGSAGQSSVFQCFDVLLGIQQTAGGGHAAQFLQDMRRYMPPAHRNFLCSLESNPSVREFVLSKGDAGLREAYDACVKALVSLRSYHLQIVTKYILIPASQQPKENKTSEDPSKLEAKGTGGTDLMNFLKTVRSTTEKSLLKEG

C#Cc1ccc(NC(=O)OC[C@]23CN(S(=O)(=O)c4ccc(C(C)(C)C)cc4C)C[C@H]2C[C@H]2C[C@@H]3C2(C)C)cc1 [98 (iDeg-6), ((3aS,4R,6R,7aS)-2-((4-(tert-butyl)-2-methylphenyl)sulfonyl)-5,5-dimethyloctahydro-3aH-4,6-methanoisoindol-3a-yl)methyl (4-ethynylphenyl)carbamate]
clinical signs (in words) (C57Bl/6 mice; 60 mg/kg IP, individual animals, shortly after administration): piloerection, subdued behavior
dose up to which no clinical signs were observed (C57Bl/6 mice; IP): ≤ 30 mg/kg
dose up to which no clinical signs were observed (C57Bl/6 mice; PO): Up to 120 mg/kg
tolerability (in words) (C57Bl/6 mice; up to 30 mg kg−1 IP, no clinical signs): well tolerated
Difference in protein level: ATP6V0D1 [1]: 0.47
Difference in protein level: COX6C [1]: 0.79
Difference in protein level: COX7A2 [1]: 0.74
Difference in protein level: COX7C [1]: 0.6
Difference in protein level: ERLIN2 [1]: 0.69
Difference in protein level: IDO1 [1]: -0.53
Difference in protein level: MT-CO2 [1]: 0.44
Difference in protein level: MT-ND2 [1]: 0.52
Difference in protein level: NDUFA3 [1]: 0.44
Difference in protein level: NDUFA9 [1]: 0.58
Difference in protein level: NDUFB3 [1]: 0.53
Difference in protein level: NDUFB11 [1]: 0.51
Difference in protein level: NDUFC2 [1]: 0.57
Difference in protein level: NDUFS5 [1]: 0.51
Difference in protein level: PHB [1]: 0.45
Difference in protein level: PHB2 [1]: 0.54
Difference in protein level: TCIRG1 [1]: 0.37
Difference in protein level: TOMM5 [1]: 0.56
Difference in protein level: TOMM22 [1]: 0.6
Difference in protein level: TOMM40 [1]: 0.45
Difference in protein level: UQCRB [1]: 0.52
Difference in protein level: VDAC3 [1]: 0.52
inhibition at 14 µM (recombinant human IDO1): 40 ± 7%
